In US5300499A, “5-substituted 3-thiophene sulfonamides as antiglaucoma agents” (Allergan, Inc., priority 1992, dated 1994):
“And” between values parts separate entries of the source, which are not always exact repeats. Identical values can stand only once.

What follows are molecules tested against T1, pure CA11 enzyme from human erythrocyte (Homo sapiens, UniProt P00918) (assay: Carbonic anhydrase activity assay, micromethod of Maren). Details: concentration that lowers the enzyme activity to half; 0°-4° C.; phenol red endpoint, pH 9.9 to 6.8.
T1 construct: pure CA11 enzyme from human erythrocyte; from tissue; host or cells: human erythrocyte
Type: biochemical
Description: Carbonic anhydrase activity was assayed according to the micromethod of Maren (J. Pharmacol. Exptl. Therap., 130, 26-29, 1960). All solutions and reagents were maintained at 0°-4° C. The final assay mixture contained 16 mM phenol red, added enzyme and 62.5 mM sodium carbonate/bicarbonate. Its volume was kept constant at 0.8 mL. The time required for the added enzyme to lower the pH of CO2 -saturated carbonate/bicarbonate buffer from pH 9.9 to 6.8 was measured using the color change of phenol red as endpoint. T1 is the time recorded for the reaction containing no enzyme. T2 is the time recorded for the reaction containing pure CA11 enzyme from human erythrocyte, or an unknown amount in a sample. Enzyme activities (unit) were calculated using the formula:
Unit/ug=(T1 -T2)/(T2 *ug protein used in assay)
IC50 of a carbonic anhydrase inhibitor is the concentration that lowers the enzyme activity to half.

IC50	SMILES
5.3 nM	NS(=O)(=O)c1csc(C(=O)c2cccc(OC(=O)c3ccccc3)c2)c1
14 nM	CCCCCCC(=O)c1cc(S(N)(=O)=O)cs1 [5-(1-heptanoyl)-3-thiophene sulfonamide]
31 nM	CCCCCCC(O)c1cc(S(N)(=O)=O)cs1 (stereo not shown) [5-(1-hydroxy-n-heptyl)-3-thiophene sulfonamide]
32 nM	CCCCC(O)c1cc(S(N)(=O)=O)cs1 (stereo not shown) [5-(1-hydroxy-n-pentyl)-3-thiophene sulfonamide]
22 nM	CCCCC(=NO)c1cc(S(N)(=O)=O)cs1 [5-(1-pentanoyl)-3-thiophene sulfonamide, oxime]
27 nM	CCCCC(=O)c1cc(S(N)(=O)=O)cs1 [5-(1-pentanoyl)-3-thiophene sulfonamide]
18 nM	NS(=O)(=O)c1csc(C(=O)c2ccccc2F)c1 [5-(2-fluorobenzoyl)-3-thiophene sulfonamide]
11 nM and 14 nM	NS(=O)(=O)c1csc(C(=O)c2cccc(C(=O)O)c2)c1 [5-(3-carboxylbenzoyl)-3-thiophene sulfonamide]
12 nM	NS(=O)(=O)c1csc(C(=O)c2cccc(F)c2)c1 [5-(3-fluorobenzoyl)-3-thiophene sulfonamide]
7.3 nM	NS(=O)(=O)c1csc(C(=O)c2cccc(C=O)c2)c1 [5-(3-formylbenzoyl)-3-thiophene sulfonamide]
37 nM	NS(=O)(=O)c1csc(C(O)c2cccc(O)c2)c1 (stereo not shown) [5-(3-hydroxybenzhydrol)-3-thiophene sulfonamide]
6.7 nM	NS(=O)(=O)c1csc(C(=O)c2cccc(O)c2)c1 [5-(3-hydroxybenzoyl)-3-thiophene sulfonamide]
8.3 nM	NS(=O)(=O)c1csc(C(=O)c2cccc(C(F)(F)F)c2)c1 [5-(3-trifluoromethylbenzoyl)-3-thiophene sulfonamide]
15 nM	NS(=O)(=O)c1csc(C(=O)c2cc(F)cc(F)c2)c1 [5-(3.5-difluorobenzoyl)-3-thiophene sulfonamide]
8.7 nM	CCCCc1ccc(C(=O)c2cc(S(N)(=O)=O)cs2)cc1 [5-(4-butylbenzoyl)-3-thiophene sulfonamide]
3.4 nM and 5 nM	NS(=O)(=O)c1csc(C(=O)c2ccc(C(=O)O)cc2)c1 [5-(4-carboxybenzoyl)-3-thiophene sulfonamide]
6 nM	CCOC(=O)c1ccc(C(=O)c2cc(S(N)(=O)=O)cs2)cc1 [5-(4-ethoxycarbonylbenzoyl)-3-thiophene sulfonamide]
18 nM	NS(=O)(=O)c1csc(C(O)c2ccc(C=O)cc2)c1 (stereo not shown) [5-(4-formylbenzhydrol)-3-thiophene sulfonamide]

IC50	SMILES
13 nM	NS(=O)(=O)c1csc(C(=O)c2ccc(C=O)cc2)c1 [5-(4-formylbenzoyl)-3-thiophene sulfonamide]
155 nM	CN(C)Cc1cc(C(=O)c2cc(S(N)(=O)=O)cs2)cc(CN(C)C)c1O [5-(4-hydroxy-3,5-(bis-N,N-dimethylaminomethyl)benzoyl)-3-thiophene sulfonamide]
30 nM	CN(C)Cc1cc(C(=O)c2cc(S(N)(=O)=O)cs2)ccc1O [5-(4-hydroxy-3-(N,N-dimethylaminomethyl)benzoyl)-3-thiophene sulfonamide]
26 nM	NS(=O)(=O)c1csc(C(O)c2ccc(O)cc2)c1 (stereo not shown) [5-(4-hydroxybenzhydrol)3-thiophene sulfonamide]
17 nM	NS(=O)(=O)c1csc(C(=O)c2ccc(O)cc2)c1 [5-(4-hydroxybenzoyl)-3-thiophene sulfonamide]
41 nM	NS(=O)(=O)c1csc(C(O)c2ccc(CO)cc2)c1 (stereo not shown) [5-(4-hydroxymethylbenzhydrol)-3-thiophene sulfonamide]
17 nM	NS(=O)(=O)c1csc(C(=O)c2ccc(CO)cc2)c1 [5-(4-hydroxymethylbenzoyl)-3-thiophene sulfonamide]
16 nM	COc1ccc(C(O)c2cc(S(N)(=O)=O)cs2)cc1 (stereo not shown) [5-(4-methoxybenzhydrol)-3-thiophene sulfonamide]
31 nM	COc1ccc(C(=NO)c2cc(S(N)(=O)=O)cs2)cc1 [5-(4-methoxybenzoyl)-3-thiophene sulfonamide, oxime]
26 nM	COc1ccc(C(=O)c2cc(S(N)(=O)=O)cs2)cc1 [5-(4-methoxybenzoyl)-3-thiophene sulfonamide]
9 nM	CCC(=O)Oc1ccc(C(=O)c2cc(S(N)(=O)=O)cs2)cc1 [5-(4-propionoxybenzoyl)-3-thiophene sulfonamide]
240 nM	NS(=O)(=O)c1csc(C(O)c2ccccn2)c1 (stereo not shown) [5-[(hydroxy)(pyridyl)methyl]-3-thiophene sulfonamide]
18 nM	COC(c1cccc(C(F)(F)F)c1)c1cc(S(N)(=O)=O)cs1 (stereo not shown) [5-[(methoxy)(3-trifluoromethylphenyl)methyl]-3-thiophene sulfonamide]
13 nM	COC(c1ccc(CO)cc1)c1cc(S(N)(=O)=O)cs1 (stereo not shown) [5-[(methoxy)(4-hydroxymethylphenyl)]methyl-3-thiophene sulfonamide]
74 nM	NS(=O)(=O)c1csc(C(O)c2ccccc2)c1 (stereo not shown) [5-benzhydrol-3-thiophene sulfonamide, 5-(benzhydrol)-3-thiophene sulfonamide]
53 nM	NS(=O)(=O)c1csc(C(=NO)c2ccccc2)c1 [5-benzoyl-3-thiophene sulfonamide, oxime]
13 nM	NS(=O)(=O)c1csc(C(=O)c2ccccc2)c1 [5-benzoyl-3-thiophene sulfonamide]
19 nM	NS(=O)(=O)c1csc(C(=O)c2ccccn2)c1 [[5-(3-sulfonamidothienyl)][2-pyridyl] ketone]

SMILES	IC50
CC(=O)Oc1ccc(C(=O)c2cc(S(N)(=O)=O)cs2)cc1 [5-(4-acetoxybenzoyl)-3-thiophene sulfonamide]	12 nM and 3.6 nM
CC(=O)OCc1ccc(C(=O)c2cc(S(N)(=O)=O)cs2)cc1 [5-(4-acetoxymethylbenzoyl)-3-thiophene sulfonamide]	6 nM
CC(C)(C)OC(=O)c1ccc(C(=O)c2cc(S(N)(=O)=O)cs2)cc1 [5-(4-t-butoxycarbonylbenzoyl)-3-thiophene sulfonamide]	3 nM
CC(=O)OC(c1ccccc1)c1cc(S(N)(=O)=O)cs1 (stereo not shown) [5-[(phenyl)(acetoxy)methyl]-3-thiophene sulfonamide]	90 nM
